Assay results published in patent publication US12522634B2, “Cyclophilin inhibitors and uses thereof” (Farsight Medical Technology (Shanghai) Co., Ltd., priority 2020, dated 2026).
Where two headings read alike, the source gives them in different places. Starred links: 1 amine or outer side, 2 acyl side, 3 side chain; linkers in the order of their positions; H or OH if unused. Non-standard residues stand in square brackets, D forms with d. Residues, ends and D or L forms follow the SMILES beside them. ξ: configuration not given here. NMeBmt(3-oxo) = C/C=C/C[C@@H](C)C(=O)[C@H](NC)C(=O)O; MeBmt = C/C=C/C[C@@H](C)[C@@H](O)[C@H](NC)C(=O)O; ξThr(3S) = C[C@H](O[*:3])C(N[*:1])C(=O)[*:2]; X1 = CN([C@H](OCCN1CCOCC1)C(=O)[*:2])[*:1]; X2 = CN(C)CCO[C@H](C(=O)[*:2])N(C)[*:1]; NMeL = CN[C@@H](CC(C)C)C(=O)O; NMeV = CN[C@H](C(=O)O)C(C)C; Nva = CCC[C@H](N)C(=O)O

Key:
[1] = test system: permeabilized HepG2; assay: Calcium retention capacity (CRC) assay in permeabilized HepG2; format: cell-based; conditions: Homo sapiens
Experimental: Calcium Retention Capacity (CRC) Assay in Permeabilized HepG2
HepG2 cells were permeabilised with 100 μM digitonin for 10 min in ice cold buffer containing 1 mM EGTA. Following two wash steps to remove the digitonin, the cells were plated into 96 well black and clear plates at 1e^6 cell per well in 180 μL assay buffer containing 0.5 μM Calcium Green 5N. Compounds dilutions were made in DMSO to 1000-fold the final concentration, diluted 1:100 in assay buffer and added to the assay as 20 μL per well. The assay buffer contained 5 mM glutamate and 2.5 mM malate. The cell plate was immediately run on the FLIPR Tetra™ which added 5 μL of 200 μM (5 μM) calcium chloride every 5 minutes whilst reading the plate every 3 seconds. The area under the curve at each concentration of compound was calculated. EC50 values were calculated.
The assay as described above measures the loss of inhibition based on the release of calcium, which is determined by increased intensity of fluorescence reporting of the calcium-binding dye used in the assay.

[2] = molecular target: Human CypA (Homo sapiens (Human), UniProt P62937); assay: Cyclophilin peptidyl-prolyl isomerase functional assay (PPIase), CypA; format: biochemical; conditions: human recombinant enzyme, 10° C.; read-out: Inhibition (Ki, nM) Human CypA
Experimental: (§1) The compounds were supplied as a dry powder or oils and made up as a 10 mM stock solution in 100% DMSO. Subsequent dilutions were made in 100% DMSO for use in all assays.
(§2) Measurements were performed using an Agilent 8453 spectrophotometer. Assay buffer was cooled to 10° C. (with stirring) in a precision glass cuvette and inhibitor was added from a DMSO stock solution to afford a final concentration of <1% DMSO. A blank spectrum was obtained and then enzyme and substrate were added and the change in absorbance measured over 5 min. A first order rate was fitted to the absorbance data to obtain a rate constant (first 10 to 15 s were eliminated due to mixing). The catalytic rate was calculated from the enzymatic rate minus the background rate. The enzymatic rate constant, determined in duplicate at each inhibitor concentration, was plotted against inhibitor concentration and a non-linear fit by SigmaPlot generated a Ki.

[3] = molecular target: Human CypD (Homo sapiens (Human), UniProt P30405); assay: Cyclophilin peptidyl-prolyl isomerase functional assay (PPIase), CypD; format: biochemical; conditions: human recombinant enzyme, 10° C.; read-out: Inhibition (Ki, nM) Human CypD
Experimental: as §1, §2

[4] = molecular target: recombinant Calcineurin (CaN) (Homo sapiens (Human), UniProt P62937+P63098+Q08209); assay: Calcineurin phosphatase inhibition assay with cyclophilin A; format: biochemical; conditions: RII phosphopeptide substrate, read-out: CaN Inhibition (IC50, nM) + CypA
Experimental: as §1
(§3) Calcineurin Phosphatase Inhibition Assay with and without Cyclophilin A
(§4) This colorimetric 96 well assay is designed for inhibitor screening of recombinant Calcineurin (CaN). […] In a 96-well plate, two dilution series were prepared, one with the cyclophilin A enzyme (7-point) and another without (4-point). An assay buffer/calcineurin/calmodulin master mix was added followed by the phosphopeptide substrate (RII). After incubation at 30° C. the reaction was stopped by the addition of malachite green/molybdate reagent. The coloured complex formed with liberated phosphate was quantified by reading the absorbance at 620 nm. The blank corrected data was plotted against inhibitor concentration to determine an IC50 value.

[5] = molecular target: recombinant Calcineurin (CaN) (Homo sapiens (Human), UniProt P63098+Q08209); assay: Calcineurin phosphatase inhibition assay without cyclophilin A; format: biochemical; conditions: RII phosphopeptide substrate, read-out: CaN Inhibition (IC50, nM) − CypA
Experimental: as §1, §3, §4

[6] = permeabilized HepG2, area under the curve, read-out: Calcium Retention Capacity EC50

Sequence of Human CypD (P30405 30-207): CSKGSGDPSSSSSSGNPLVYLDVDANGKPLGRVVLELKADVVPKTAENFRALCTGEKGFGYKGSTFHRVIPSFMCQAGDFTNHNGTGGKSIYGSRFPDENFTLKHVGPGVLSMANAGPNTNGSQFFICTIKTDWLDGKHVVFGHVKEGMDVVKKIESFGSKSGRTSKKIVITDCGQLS

SMILES	EC50 ([1]; HepG2, read-out: Calcium Retention Capacity EC50 (nM))	Ki [2]	Ki [3]	IC50 [4]	IC50 [5]	EC50 [1, 6]
C/C=C/C[C@@H](C)[C@@H](O)[C@H]1C(=O)N[C@@H](CC)C(=O)N(C)[C@H](OCCN(C)C)C(=O)N(C)[C@@H](CC(C)C)C(=O)N[C@@H](C(C)C)C(=O)N(C)[C@@H](CC(C)C)C(=O)N[C@@H](C)C(=O)N[C@H](C)C(=O)N(C)[C@@H](CC(C)C)C(=O)N(C)[C@@H](CC(C)C)C(=O)N(C)[C@@H](C(C)C)C(=O)N1C [Compound 1, reference compound]	916 nM					
C/C=C/C[C@@H](C)[C@@H](O)[C@H]1C(=O)NC([C@H](C)O)C(=O)N(C)[C@H](OCCN(C)C)C(=O)N(C)[C@@H](CC(C)C)C(=O)N[C@@H](C(C)C)C(=O)N(C)[C@@H](CC(C)C)C(=O)N[C@@H](C)C(=O)N[C@H](C)C(=O)N(C)[C@@H](CC(C)C)C(=O)N(C)[C@@H](CC(C)C)C(=O)N(C)[C@@H](C(C)C)C(=O)N1C (stereo partly drawn) [Compound 2] (cyclo(A[dA][NMeL][NMeL][NMeV][MeBmt][ξThr(3S)][X2][NMeL]V[NMeL]))		50 nM	78 nM	5000 nM	> 10000 nM	> 10000 nM
C/C=C/C[C@@H](C)[C@@H](O)[C@H]1C(=O)N[C@@H](C(C)C)C(=O)N(C)[C@H](OCCN(C)C)C(=O)N(C)[C@@H](CC(C)C)C(=O)N[C@@H](C(C)C)C(=O)N(C)[C@@H](CC(C)C)C(=O)N[C@@H](C)C(=O)N[C@H](C)C(=O)N(C)[C@@H](CC(C)C)C(=O)N(C)[C@@H](CC(C)C)C(=O)N(C)[C@@H](C(C)C)C(=O)N1C [Compound 3] (cyclo(A[dA][NMeL][NMeL][NMeV][MeBmt]V[X2][NMeL]V[NMeL]))				1320 nM	5510 nM	946 nM
C/C=C/C[C@@H](C)[C@@H](O)[C@H]1C(=O)N[C@@H](C(C)C)C(=O)N(C)[C@H](OCCN2CCOCC2)C(=O)N(C)[C@@H](CC(C)C)C(=O)N[C@@H](C(C)C)C(=O)N(C)[C@@H](CC(C)C)C(=O)N[C@@H](C)C(=O)N[C@H](C)C(=O)N(C)[C@@H](CC(C)C)C(=O)N(C)[C@@H](CC(C)C)C(=O)N(C)[C@@H](C(C)C)C(=O)N1C [Compound 4] (cyclo(A[dA][NMeL][NMeL][NMeV][MeBmt]V[X1][NMeL]V[NMeL]))				1320 nM	4190 nM	320 nM
C/C=C/C[C@@H](C)C(=O)[C@H]1C(=O)N[C@@H](C(C)C)C(=O)N(C)[C@H](OCCN(C)C)C(=O)N(C)[C@@H](CC(C)C)C(=O)N[C@@H](C(C)C)C(=O)N(C)[C@@H](CC(C)C)C(=O)N[C@@H](C)C(=O)N[C@H](C)C(=O)N(C)[C@@H](CC(C)C)C(=O)N(C)[C@@H](CC(C)C)C(=O)N(C)[C@@H](C(C)C)C(=O)N1C [Compound 5] (cyclo(A[dA][NMeL][NMeL][NMeV][NMeBmt(3-oxo)]V[X2][NMeL]V[NMeL]))		23 nM	17 nM	> 10000 nM	> 10000 nM	> 10000 nM
C/C=C/C[C@@H](C)C(=O)[C@H]1C(=O)N[C@@H](C(C)C)C(=O)N(C)[C@H](OCCN2CCOCC2)C(=O)N(C)[C@@H](CC(C)C)C(=O)N[C@@H](C(C)C)C(=O)N(C)[C@@H](CC(C)C)C(=O)N[C@@H](C)C(=O)N[C@H](C)C(=O)N(C)[C@@H](CC(C)C)C(=O)N(C)[C@@H](CC(C)C)C(=O)N(C)[C@@H](C(C)C)C(=O)N1C [Compound 6] (cyclo(A[dA][NMeL][NMeL][NMeV][NMeBmt(3-oxo)]V[X1][NMeL]V[NMeL]))		90 nM	150 nM	> 10000 nM	> 10000 nM	> 10000 nM
C/C=C/C[C@@H](C)[C@@H](O)[C@H]1C(=O)N[C@@H](CCC)C(=O)N(C)[C@H](OCCN(C)C)C(=O)N(C)[C@@H](CC(C)C)C(=O)N[C@@H](C(C)C)C(=O)N(C)[C@@H](CC(C)C)C(=O)N[C@@H](C)C(=O)N[C@H](C)C(=O)N(C)[C@@H](CC(C)C)C(=O)N(C)[C@@H](CC(C)C)C(=O)N(C)[C@@H](C(C)C)C(=O)N1C [Compound 7] (cyclo(A[dA][NMeL][NMeL][NMeV][MeBmt][Nva][X2][NMeL]V[NMeL]))				789 nM	3220 nM	2370 nM
C/C=C/C[C@@H](C)[C@@H](O)[C@H]1C(=O)N[C@@H](CCC)C(=O)N(C)[C@H](OCCN2CCOCC2)C(=O)N(C)[C@@H](CC(C)C)C(=O)N[C@@H](C(C)C)C(=O)N(C)[C@@H](CC(C)C)C(=O)N[C@@H](C)C(=O)N[C@H](C)C(=O)N(C)[C@@H](CC(C)C)C(=O)N(C)[C@@H](CC(C)C)C(=O)N(C)[C@@H](C(C)C)C(=O)N1C [Compound 8] (cyclo(A[dA][NMeL][NMeL][NMeV][MeBmt][Nva][X1][NMeL]V[NMeL]))				636 nM	7830 nM	1610 nM
C/C=C/C[C@@H](C)[C@@H](O)[C@H]1C(=O)N[C@@H](CC)C(=O)N(C)[C@H](OCC/N=C(\C)N(C)C)C(=O)N(C)[C@@H](CC(C)C)C(=O)N[C@@H](C(C)C)C(=O)N(C)[C@@H](CC(C)C)C(=O)N[C@@H](C)C(=O)N[C@H](C)C(=O)N(C)[C@@H](CC(C)C)C(=O)N(C)[C@@H](CC(C)C)C(=O)N(C)[C@@H](C(C)C)C(=O)N1C [Compound 9]		11 nM	8.2 nM	2020 nM	3880 nM	468 nM
C/C=C/C[C@@H](C)[C@@H](O)[C@H]1C(=O)N[C@@H](CC)C(=O)N(C)[C@H](OCC/N=C/N(C)C)C(=O)N(C)[C@@H](CC(C)C)C(=O)N[C@@H](C(C)C)C(=O)N(C)[C@@H](CC(C)C)C(=O)N[C@@H](C)C(=O)N[C@H](C)C(=O)N(C)[C@@H](CC(C)C)C(=O)N(C)[C@@H](CC(C)C)C(=O)N(C)[C@@H](C(C)C)C(=O)N1C [Compound 10]		14 nM	9.7 nM	1830 nM	3710 nM	3200 nM
C/C=C/C[C@@H](C)[C@@H](O)[C@H]1C(=O)N[C@@H](CC)C(=O)N(C)[C@H](OCC(C)(C)N(C)C)C(=O)N(C)[C@@H](CC(C)C)C(=O)N[C@@H](C(C)C)C(=O)N(C)[C@@H](CC(C)C)C(=O)N[C@@H](C)C(=O)N[C@H](C)C(=O)N(C)[C@@H](CC(C)C)C(=O)N(C)[C@@H](CC(C)C)C(=O)N(C)[C@@H](C(C)C)C(=O)N1C [Compound 11]		25 nM	6 nM	616 nM	1620 nM	3320 nM
C/C=C/C[C@@H](C)[C@@H](O)[C@H]1C(=O)N[C@@H](CC)C(=O)N(C)[C@H](OCC2(N(C)C)CC2)C(=O)N(C)[C@@H](CC(C)C)C(=O)N[C@@H](C(C)C)C(=O)N(C)[C@@H](CC(C)C)C(=O)N[C@@H](C)C(=O)N[C@H](C)C(=O)N(C)[C@@H](CC(C)C)C(=O)N(C)[C@@H](CC(C)C)C(=O)N(C)[C@@H](C(C)C)C(=O)N1C [Compound 12]		6.5 nM	6 nM			
